According to patent US7317038B2, “Nerve regeneration promoters containing semaphorin inhibitor as the active ingredient” (Dainippon Sumitomo Pharma Co., Ltd., priority 2000, dated 2008):
“Also recorded” adds a separate entry of the source.

Columns and labels:
[1] = target: T1, mouse semaphorin 3A (Sema3A) (Mus musculus, UniProt O08665); assay: Suppression of growth cone collapse activity of Sema3A (chick embryo dorsal root ganglions); type: cell-based; conditions: for IC50: E7 chick embryo dorsal root ganglions, 2 units/ml Sema3A added 1 hour after compound, concentration where collapse rate = (A+B)/2, read-out: IC50 of inhibition of the growth cone collapse activity of Sema3A (converted); for inhibition of growth cone collapse activity of Sema3A (in words): chick embryo dorsal root ganglions
T1 sequence (O08665 21-772): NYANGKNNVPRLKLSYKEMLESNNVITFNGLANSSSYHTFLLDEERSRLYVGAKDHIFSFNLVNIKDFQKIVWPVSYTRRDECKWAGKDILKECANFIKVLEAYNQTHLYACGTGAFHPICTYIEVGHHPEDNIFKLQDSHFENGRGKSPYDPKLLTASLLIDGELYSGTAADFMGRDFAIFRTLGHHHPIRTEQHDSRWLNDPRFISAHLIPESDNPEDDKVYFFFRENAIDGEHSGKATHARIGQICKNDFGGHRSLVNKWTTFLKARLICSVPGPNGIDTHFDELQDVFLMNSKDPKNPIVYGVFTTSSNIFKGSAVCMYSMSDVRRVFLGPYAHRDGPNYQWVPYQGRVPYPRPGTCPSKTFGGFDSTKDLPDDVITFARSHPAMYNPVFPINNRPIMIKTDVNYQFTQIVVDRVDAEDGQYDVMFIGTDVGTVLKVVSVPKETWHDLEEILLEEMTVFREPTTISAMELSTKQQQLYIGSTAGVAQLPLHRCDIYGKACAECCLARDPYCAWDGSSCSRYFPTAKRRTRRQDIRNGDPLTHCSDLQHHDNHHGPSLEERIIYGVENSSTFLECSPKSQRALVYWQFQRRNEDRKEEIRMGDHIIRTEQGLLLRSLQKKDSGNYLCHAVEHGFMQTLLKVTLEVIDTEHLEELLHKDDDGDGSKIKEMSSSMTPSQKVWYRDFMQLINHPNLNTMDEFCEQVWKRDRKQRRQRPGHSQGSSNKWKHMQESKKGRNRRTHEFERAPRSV
Protocol: A 96-well plate (Sumitomo Bakelite Co., ltd. ) pre-coated with polylysine was further coated with laminine (20 μg/ml of laminine, for 1 hour at room temperature). Each well was added with 100 μl of medium (F12 medium containing 10% bovine fetal serum, 20 ng/ml of NGF, 100 units/ml of penicillin and 100 μg/ml of streptomycin) which media were then inoculated with dorsal root nerve ganglions excised from E7 (Embryonic day 7) chick embryo and were cultured for 16 to 20 hours under 5% CO2 and at 37° C. Subsequently, the object compounds were added to media at various concentrations and 2 units/ml of mouse semaphorin 3A (Sema3A) was added after cultivating for 1 hour. The cultures were further incubated for another 1 hour. Glutaraldehyde was quickly added therein after said 1 hour to make the final concentration 1%. The cultures were then left for 15 minutes at room temperature so that the tissue sections were fixed, and collapse rates of the growth cones were microscopically observed. A well with no addition of Sema3A was made the control.
The longitudinal and lateral axes in the figures represent the collapse rate of growth cones and the concentration of compounds, respectively. ●▪▴ show the results when Sema3A was added after the addition of the compounds and ◯[…]Δ show those when Sema3A was not added. Further, IC50 (μg/ml) of the inhibitors were determined by the method comprising: calculating the collapse rate of growth cone (A) % of the negative controls (neither compounds nor Sema3a was added); subsequently calculate the collapse rate of growth cone (B) % of the positive controls (compounds were not added but Sema3a was added); and the concentration was chosen for each compound from the chart where the collapse rate of growth cone met (A+B)/2(%), which was made IC50 level. The followings are the results.

[2] = test system: COS7 cells; assay: Effect on cell proliferation (MTT); type: cell-based; conditions: Chlorocebus aethiops, COS-7, 48 h, two days, read-out: IC50, inhibitory rate for cell proliferation
Protocol: COS7 cells were seeded onto a 96-well plate (medium 100 μl/well) at 10000 cells per well. At the same time, SPF-3059-1 of various concentrations was added and the cells were cultivated for two days in the presence of 5% CO2 at 37° C. Each well was then added with 10 μl of MTT solution at 5 mg/ml and cultured for another one hour. Subsequently, the culture supernatant was removed and formazan (an MTT derivative produced in viable cells) accumulated in the cells was dissolved by the addition of 50 μl DMSO and then the absorbance at 570 nm was measured to determine the proliferation of COS7 cells. […] The longitudinal and lateral axes in the figure show cell proliferation and the SPF-3059-1 concentration, respectively. Besides, the standard deviation (n=4) was added to each column.
The same effect on cell proliferation as in Example 9 was examined for the compounds, SPF-3059-1, SPF-3059-2 and SPF-3059-5. The wells with these compounds were served as samples, the wells with PBS were served as control, and the wells for which the experiment was carried out without adding the cells was served as blank. IC50 (μg/ml), the inhibitory rate for cell proliferation, was determined, which is calculated by the equation shown below. The inhibitory rate for cell proliferation (%)=(1−(absorbance of a sample well−absorbance of the blank well)/(absorbance of the control well−absorbance of the blank well))×100

[3] = Solubility; type: physicochemical
[4] = target: T2, Sema3A (Mus musculus, UniProt O08665); assay: Collagen gel co-culture: suppression of neurite outgrowth inhibitory action of Sema3A; type: cell-based; set-up: key to suppression of neurite outgrowth inhibitory activity of Sema3A, score / inhibition of neurite outgrowth-inhibitory action of Sema3A, score: neurites outgrew in a complete concentric circular shape just like for the control groups where Sema3A-non-expressing COS7 cells were used, it was scored +++ (a strong inhibitory effect for Sema3A); outgrowth was found almost in a concentric circular shape accompanied with a little suppression of the outgrowth toward the direction of Sema3A-expressing COS cells, it was scored ++; outgrowth toward the direction of Sema3A-expressing COS cells is fairly suppressed to present a crescent shape, it was scored +; outgrowth toward the direction of Sema3A-expressing COS cells was not found at all (no inhibitory effect for Sema3A), it was scored −; conditions: for suppression of neurite outgrowth inhibitory activity of Sema3A, score: Example 5; for inhibition of neurite outgrowth-inhibitory action of Sema3A, score: 2 μg/ml compound, Example 16; for persistent inhibitory action to Sema3A (neurite outgrowth toward Sema3A-expressing COS7 cell clump): collagen gel co-culture, 2 days
T2 construct: expressed in transfected cells; host or cells: COS7
T2 sequence (O08665 21-772): T1 sequence (O08665 21-772)
Protocol: Whether the object compounds (SPF-3059-1, M162, A721) have persistent inhibitory action to Sema3A was analyzed by the collagen gel co-culture method (Neuroprotocols 4, 116, 1994) using Sema3A-expressing COS7 cell clumps and 7- or 8-day-old chick embryo dorsal root ganglions. The Sema3A-expressing COS7 cell clumps were generated as follows. 1 μg of Sema3A-expression plasmid was introduced into COS7 cells (100000 cells/35 mm culture plate), which were cultured overnight, with the FuGENE6 transfection reagent (Roche). 2.5 hours after the starting of the transfection, the COS7 cells were collected by trypsinization and centrifugation, and re-suspended in a medium of 200 μl. 20 μl of the cell suspension was placed on the lid of the culture plate (inside) and the lid was turned over, and then the suspension was cultivated for 20 hours (hanging drop culture) (Cell 78, 425, 1994). When the culture was over, aggregated COS7 cells (clump) were collected and trimmed to a diameter of 0.5 mm. The Sema3A-expressing COS7 cell clump and the above-mentioned dorsal root ganglions were placed in parallel at a distance of 0.5 to 1 mm in a 0.2% collagen gel which was then cultivated in a medium containing the aforementioned compounds at various concentrations for 2 days at 37° C. under 5% CO2. Glutaraldehyde was quickly added therein to make the final concentration 1%. The cultures were then left for 1 hour at room temperature so that the tissues were fixed, and the neurite outgrowth was microscopically observed. The results are found in FIG. 4.
When a medium not containing a subject compound was used, neurites were unable to grow towards the COS7 cell clump with the high concentration of Sema3A and grew only to the opposite direction.
In a similar way as in Example 4, suppression of the neurite outgrowth inhibitory activity was analyzed for the compounds, SPF-3059-1, SPF-3059-2 and SPF-3059-5. When the neurites outgrew in a complete concentric circular shape just like for the control groups where Sema3A-non-expressing COS7 cells were used, it was scored +++ (a strong inhibitory effect for Sema3A). When the outgrowth was found almost in a concentric circular shape accompanied with a little suppression of the outgrowth toward the direction of Sema3A-expressing COS cells, it was scored ++. […] When the outgrowth toward the direction of Sema3A-expressing COS cells was not found at all (no inhibitory effect for Sema3A), it was scored −.

Compound | IC50 [1] [nM] | Solubility ([3]; methanol, DMSO) | Solubility ([3]; water, hexane) | suppression of neurite outgrowth inhibitory activity of Sema3A, score ([4]; 0.5 μg/ml compound) | suppression of neurite outgrowth inhibitory activity of Sema3A, score ([4]; 1.0 μg/ml compound) | suppression of neurite outgrowth inhibitory activity of Sema3A, score ([4]; 2.0 μg/ml compound) | inhibition of neurite outgrowth-inhibitory action of Sema3A, score [4] | IC50 [2] [µg/mL] | inhibition of growth cone collapse activity of Sema3A (in words) [1] | persistent inhibitory action to Sema3A (neurite outgrowth toward Sema3A-expressing COS7 cell clump) [4]
CC(=O)c1c(C)c(C(=O)C2COc3cc(O)c(O)cc3C2=O)cc2c(=O)c3cc(O)c(O)cc3oc12 (stereo not shown) [SPF-3059-30] | 408 | Soluble | Insoluble |  |  |  |  | > 100 |  | 
CC(=O)c1c(C)c(-c2cc(=O)c3c(C(=O)O)cc(O)cc3o2)cc2c(=O)c3c(C(=O)O)c(O)c(O)cc3oc12 [SPF-3059-28] | 3760 | Soluble | Insoluble |  |  |  |  |  |  | 
CC(=O)c1cc2c(=O)c3c(C(=O)O)cc(O)cc3oc2c(C(C)=O)c1-c1coc2cc(O)c(O)cc2c1=O [SPF-3059-25] | 7750 | Soluble | Insoluble |  |  |  |  |  |  | 
CC(=O)c1c(C)c(-c2cc(=O)c3c(C(=O)O)c(O)c(O)cc3o2)cc2c(=O)c3c(C(=O)O)c(O)c(O)cc3oc12 [SPF-3059-39] | 182 | Soluble | Insoluble |  |  |  |  |  |  | 
CC(=O)c1cc2c(=O)c3cc(O)c(O)cc3oc2c(C(C)=O)c1-c1coc2cc(O)c(O)c(C(=O)O)c2c1=O [SPF-3059-2] |  |  |  | + | ++ | +++ | +++ | > 100 | inhibit the growth cone collapse activities of Sema3A in a concentration-dependent manner; also recorded: potently inhibit semaphorin | persistently inhibited the action of Sema3A
COCc1c(-c2cc3c(=O)c4cc(O)c(O)cc4oc3c(C(C)=O)c2C)oc2cc(O)c(O)c(C(=O)O)c2c1=O [SPF-3059-29] | 182 | Soluble | Insoluble |  |  |  |  | > 100 |  | 
CC(=O)c1c(C)c(C(=O)C2COc3cc(O)c(O)cc3C2=O)cc2c(=O)c3c(C(=O)O)c(O)c(O)cc3oc12 (stereo not shown) [SPF-3059-9] | 187 | Soluble | Insoluble |  |  |  |  | > 100 |  | 

Now from value to compound, other results behind:

IC50 [1] [nM] | Solubility ([3]; methanol, DMSO) | Solubility ([3]; water, hexane) | suppression of neurite outgrowth inhibitory activity of Sema3A, score ([4]; 0.5 μg/ml compound) | suppression of neurite outgrowth inhibitory activity of Sema3A, score ([4]; 1.0 μg/ml compound) | suppression of neurite outgrowth inhibitory activity of Sema3A, score ([4]; 2.0 μg/ml compound) | inhibition of neurite outgrowth-inhibitory action of Sema3A, score [4] | Compound | IC50 [2] [µg/mL] | inhibition of growth cone collapse activity of Sema3A (in words) [1] | persistent inhibitory action to Sema3A (neurite outgrowth toward Sema3A-expressing COS7 cell clump) [4]
182 | Soluble | Insoluble |  |  |  |  | CC(=O)c1c(C)c(C(=O)C2(O)COc3cc(O)c(O)cc3C2=O)cc2c(=O)c3c(C(=O)O)c(O)c(O)cc3oc12 (stereo not shown) [SPF-3059-34] |  |  | 
< 173 |  |  | + | ++ | ++ | ++ | CC(=O)c1cc2c(=O)c3c(C(=O)O)c(O)c(O)cc3oc2c(C(C)=O)c1-c1coc2cc(O)c(O)c(C(=O)O)c2c1=O [SPF-3059-5] | > 300 | inhibit the growth cone collapse activities of Sema3A in a concentration-dependent manner; also recorded: potently inhibit semaphorin | persistently inhibited the action of Sema3A
3660 | Soluble | Insoluble |  |  |  |  | COC(=O)c1cc(O)cc2oc(-c3cc4c(=O)c5c(C(=O)O)c(O)c(O)cc5oc4c(C(C)=O)c3C)cc(=O)c12 [SPF-3059-35] |  |  | 
409 | Soluble | Insoluble |  |  |  |  | CC(=O)c1cc2c(=O)c3cc(O)c(O)cc3oc2c(C(C)=O)c1-c1coc2cc(O)c(O)cc2c1=O [SPF-3059-26] |  |  | 
188 | Soluble | Insoluble |  |  |  |  | CC(=O)c1cc2c(=O)c3c(C(=O)O)c(O)c(O)cc3oc2c(C(C)=O)c1-c1coc2cc(O)c(O)cc2c1=O [SPF-3059-24] | > 100 |  | 
6680 | Soluble | Insoluble |  |  |  |  | CC(=O)c1cc(-c2c(C(C)=O)cc3c(=O)c4cc(O)c(O)cc4oc3c2C(C)=O)cc(C(=O)c2cc(O)c(O)cc2O)c1O [SPF-3059-36] |  |  | 
778 | Soluble | Insoluble |  |  |  |  | CC(=O)c1cc(-c2c(C(C)=O)cc3c(=O)c4c(C(=O)O)c(O)c(O)cc4oc3c2C(C)=O)cc(C(=O)c2cc(O)c(O)cc2O)c1O [SPF-3059-27] |  |  | 
< 124 | Soluble | Insoluble |  |  |  |  | CC(=O)c1c(C)c(-c2oc3cc(O)c(O)c(C(=O)O)c3c(=O)c2Cc2c(C)oc3c(c2=O)COc2cc(O)c(O)cc2-3)cc2c(=O)c3c(C(=O)O)c(O)c(O)cc3oc12 [SPF-3059-37] |  |  | 
